{"source": "patent US20060110456A1", "about": "“Method for biocidal and/or biostatic treatment and compositions therefor” (NATIONAL UNIVERSITY OF SINGAPORE, priority 2004, published 2006)", "key": {"[1]": {"tested_on": "biofilm bacteria (strains 4, 9, 14, 20, 27, 28)", "test": "Effect of pharmaceuticals on adhesion of bacteria to plastic / biofilm formation on NTC and TC plates", "format": "cell-based, marine bacteria isolated from Singapore fouling communities", "procedure": "Commercial forms of pharmaceuticals were used as previously described. […] These samples were sonicated for at least 1 min and these fine suspensions were used as initial stock solutions.\nFor studies of bacterial adhesion, the pharmaceuticals were first sterilized by soaking in absolute alcohol (Merck) for half an hour. Ethanol was removed by air-drying with air passed through 0.25 μm pore size syringe filter (Sartorius, Germany). Stock solutions were concentrations of 100 μg ml−1 in SDI.\nThe effect of pharmaceuticals on bacterial adhesion was analyzed using a modified microplate method adapted from Shea and Williamson (1990). This method employs a combination of staining attached bacteria with crystal violet, releasing the stain with sodium desoxycholate, and measuring the resulting absorbance of the crystal violet.\nDetailed results for six selected strains are presented here: strains 4, 9, 14, 20, 27, 28. The bacterial strains were grown in Marine Broth (Pronadisa, Spain) overnight, in the dark, at 28° C. on a rotary shaker (150 rpm) in 5 ml centrifuge tubes (Falcon). Cells were harvested by centrifugation (1500×g, 10 min) and resuspended in sterile seawater (SSW). SSW was prepared by filtering seawater through a 0.2 μm pore size filter (Sartorius) followed by autoclaving. The cells were centrifuged and resuspended once more in SSW. The concentration of resuspended cells was adjusted to A600=1.0 using a spectrophotometer (Beckman DU530, USA).\nFlat bottom 96 well polystyrene (hydrophobic, Falcon 351172) (=NTC) and tissue-culture treated polystyrene (hydrophilic, Falcon 353072) (=TC) microplates were used in the analyses. Each test was performed in triplicate. Two sets of experiments were conducted. […] For the control and blank wells, 25 ul of SDI were added. For wells containing pharmaceuticals, 25 ul of the respective pharmaceutical at a concentration of 100 ug ml−1 were added. This was immediately followed by the addition of 75 ul of bacterial suspension. To blanks were added 75 ul of SSW.\nThe bacterial cells in suspension were allowed to attach for 2 h at 28° C. Unattached cells were removed by aspiration using a plate washer (Tecan, Austria) and wells were rinsed three times with 200 ul of SSW each time. The attached cells were stained with 200 ul of crystal violet solution (0.1% w/v in deionized water) in each well for 5 min. After removing the stain using the plate washer, the wells were rinsed twice with 300 ul of SDI each time. Sodium desoxycholate (200 ul) solution (2% w/v in deionized water) was added to each well to extract the crystal violet from the attached stained cells for 10 min. The absorbance of the crystal violet was read at 590 nm using a microplate reader (Sunrise, Tecan, Austria).\nResults of the adhesion assay were obtained by the difference in absorbance readings between wells containing bacterial cells and the mean of absorbance of those containing the SSW only. The effect of the pharmaceuticals on bacterial adhesion was determined by the examining the differences in absorbance between the wells containing the pharmaceuticals+bacteria and the bacteria. The significance was compared using T-test."}, "[2]": {"tested_on": "marine bacteria (26 strains)", "test": "Disk inhibition assay", "format": "cell-based, marine bacteria isolated from Singapore fouling communities", "conditions": "for zone of inhibition at 25 µg/disc: 25 μg per disc; for zone of inhibition at 50 µg/disc: 50 μg per disc", "how_it_was_run": "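Tablets or capsule powders suspended in sterile water at 2 mg ml^−1 and loaded onto disks; antibiotic discs (Amp, Ery, Str, Tet) served as comparison. Disks placed on swabbed lawns on Marine Agar, incubated overnight in the dark at 30° C. Zone of clearing diameter measured by calipers; three replicates on three occasions.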"}, "barnacle nauplii": {"tested_on": "barnacle nauplii", "test": "Toxicity of drugs under different light conditions and over time (stability in seawater)", "format": "in vivo, Balanus amphitrite", "conditions": "25 ug ml^−1 seawater suspension", "procedure": "Preliminary experiments were carried out to examine the chemical stability of the drugs. 25 ug ml^−1 seawater suspensions of the drugs were prepared, in 3 replicates per condition, 3 replicate tubes containing 15 ml per test tube per prepared for each treatment type. The treatments consisted of: • i. Dark condition: tubes were wrapped in aluminium foil and kept in the dark at all times • ii. 12L:12D condition, where the tubes were subject incubated in a plant growth chamber with light regime of 12 hours light and 12 hours dark. • iii. UV treated tubes were subject to UV for half an hour. […] Sets (1) & (2) were tested at week 0, 1, 2 and after 4 weeks. “UV” set is only assayed after UV treatment. […] Effect of UV"}, "[3]": {"conditions": "crude rank, best (1) to worst (8)"}}, "note": "Entries after “also recorded” stand apart in the source; their conditions may differ. Where a name gives a salt, the structure may show the parent alone. Read-outs that look alike come from different tables or passages of the source."}
{"smiles": "CNCCC(Oc1ccc(C(F)(F)F)cc1)c1ccccc1", "note": "(stereo not shown) [PZC, fluoxetine hydrochloride]", "values": [{"measurement": "Effect on formation of bacterial biofilms on NTC and TC plates", "setting": "[1]; 25 ug ml−1, NTC = untreated polystyrene, TC = tissue-culture treated, strains 4, 9, 14, 20, 27, 28, hydrochloride", "result": "slight effect on biofilm formation in strain 4 on both TC and NTC plates; also recorded: slight effect on strain 4 (p<0.1)"}, {"measurement": "Prevention of formation of biofilm", "setting": "[1]; [3]", "result": 5}, {"measurement": "Activity against the three Vibrio strains tested", "setting": "[2]", "result": "exhibited activity against the three Vibrio strains tested"}, {"measurement": "Antibiotic activity against marine bacteria", "setting": "[2]", "result": "strongest activity"}, {"measurement": "Number of strains inhibited out of 26 strains", "setting": "[2]", "result": 23}, {"measurement": "Strains showing no inhibition (of 26)", "setting": "[2]", "result": "only strain 6 was not inhibited"}, {"measurement": "Antibiotic activity against marine bacteria", "setting": "[2]; [3]", "result": 2}, {"measurement": "zone of inhibition at 25 µg/disc", "setting": "[2]; strain 1 (Rhodovulum)", "result": "< 5", "unit": "mm"}, {"measurement": "zone of inhibition at 50 µg/disc", "setting": "[2]; strain 1 (Rhodovulum)", "result": "5 to 9", "unit": "mm"}, {"measurement": "zone of inhibition at 25 µg/disc", "setting": "[2]; strain 2 (Erythrobacter)", "result": "10 to 19", "unit": "mm"}, {"measurement": "zone of inhibition at 50 µg/disc", "setting": "[2]; strain 2 (Erythrobacter)", "result": "10 to 19", "unit": "mm"}, {"measurement": "zone of inhibition at 25 µg/disc", "setting": "[2]; strain 3 (Erythrobacter)", "result": "10 to 19", "unit": "mm"}, {"measurement": "zone of inhibition at 50 µg/disc", "setting": "[2]; strain 3 (Erythrobacter)", "result": "10 to 19", "unit": "mm"}, {"measurement": "zone of inhibition at 25 µg/disc", "setting": "[2]; strain 4 (Bacillus)", "result": "10 to 19", "unit": "mm"}, {"measurement": "zone of inhibition at 50 µg/disc", "setting": "[2]; strain 4 (Bacillus)", "result": "20 to 29", "unit": "mm"}, {"measurement": "zone of inhibition at 25 µg/disc", "setting": "[2]; strain 6 (Vibrio)", "result": "< 5", "unit": "mm"}, {"measurement": "zone of inhibition at 50 µg/disc", "setting": "[2]; strain 6 (Vibrio)", "result": "< 5", "unit": "mm"}, {"measurement": "zone of inhibition at 25 µg/disc", "setting": "[2]; strain 7 (Vibrio)", "result": "< 5", "unit": "mm"}, {"measurement": "zone of inhibition at 50 µg/disc", "setting": "[2]; strain 7 (Vibrio)", "result": "10 to 19", "unit": "mm"}, {"measurement": "zone of inhibition at 25 µg/disc", "setting": "[2]; strain 8 (Bacillus)", "result": "10 to 19", "unit": "mm"}, {"measurement": "zone of inhibition at 50 µg/disc", "setting": "[2]; strain 8 (Bacillus)", "result": "20 to 29", "unit": "mm"}, {"measurement": "zone of inhibition at 25 µg/disc", "setting": "[2]; strain 9 (Bacillus)", "result": "10 to 19", "unit": "mm"}, {"measurement": "zone of inhibition at 50 µg/disc", "setting": "[2]; strain 9 (Bacillus)", "result": "10 to 19", "unit": "mm"}, {"measurement": "zone of inhibition at 25 µg/disc", "setting": "[2]; strain 10 (Halobacillus)", "result": "10 to 19", "unit": "mm"}, {"measurement": "zone of inhibition at 50 µg/disc", "setting": "[2]; strain 10 (Halobacillus)", "result": "10 to 19", "unit": "mm"}, {"measurement": "zone of inhibition at 25 µg/disc", "setting": "[2]; strain 11 (Pseudomonas)", "result": "10 to 19", "unit": "mm"}, {"measurement": "zone of inhibition at 50 µg/disc", "setting": "[2]; strain 11 (Pseudomonas)", "result": "20 to 29", "unit": "mm"}, {"measurement": "zone of inhibition at 25 µg/disc", "setting": "[2]; strain 12 (Gordonia)", "result": "10 to 19", "unit": "mm"}, {"measurement": "zone of inhibition at 50 µg/disc", "setting": "[2]; strain 12 (Gordonia)", "result": "20 to 29", "unit": "mm"}, {"measurement": "zone of inhibition at 25 µg/disc", "setting": "[2]; strain 13 (Bacillus)", "result": "10 to 19", "unit": "mm"}, {"measurement": "zone of inhibition at 50 µg/disc", "setting": "[2]; strain 13 (Bacillus)", "result": "10 to 19", "unit": "mm"}, {"measurement": "zone of inhibition at 25 µg/disc", "setting": "[2]; strain 14 (Vibrio)", "result": "10 to 19", "unit": "mm"}, {"measurement": "zone of inhibition at 50 µg/disc", "setting": "[2]; strain 14 (Vibrio)", "result": "10 to 19", "unit": "mm"}, {"measurement": "zone of inhibition at 25 µg/disc", "setting": "[2]; strain 16 (Pseudoalteromonas)", "result": "5 to 9", "unit": "mm"}, {"measurement": "zone of inhibition at 50 µg/disc", "setting": "[2]; strain 16 (Pseudoalteromonas)", "result": "10 to 19", "unit": "mm"}, {"measurement": "zone of inhibition at 25 µg/disc", "setting": "[2]; strain 17 (Gordonia)", "result": "10 to 19", "unit": "mm"}, {"measurement": "zone of inhibition at 50 µg/disc", "setting": "[2]; strain 17 (Gordonia)", "result": "20 to 29", "unit": "mm"}, {"measurement": "zone of inhibition at 25 µg/disc", "setting": "[2]; strain 18 (Microbacterium)", "result": "10 to 19", "unit": "mm"}, {"measurement": "zone of inhibition at 50 µg/disc", "setting": "[2]; strain 18 (Microbacterium)", "result": "10 to 19", "unit": "mm"}, {"measurement": "zone of inhibition at 25 µg/disc", "setting": "[2]; strain 19 (Erythrobacter)", "result": "10 to 19", "unit": "mm"}, {"measurement": "zone of inhibition at 50 µg/disc", "setting": "[2]; strain 19 (Erythrobacter)", "result": "20 to 29", "unit": "mm"}, {"measurement": "zone of inhibition at 25 µg/disc", "setting": "[2]; strain 20", "result": "10 to 19", "unit": "mm"}, {"measurement": "zone of inhibition at 50 µg/disc", "setting": "[2]; strain 20", "result": "10 to 19", "unit": "mm"}, {"measurement": "zone of inhibition at 25 µg/disc", "setting": "[2]; strain 21", "result": "5 to 9", "unit": "mm"}, {"measurement": "zone of inhibition at 50 µg/disc", "setting": "[2]; strain 21", "result": "10 to 19", "unit": "mm"}, {"measurement": "zone of inhibition at 25 µg/disc", "setting": "[2]; strain 22", "result": "10 to 19", "unit": "mm"}, {"measurement": "zone of inhibition at 50 µg/disc", "setting": "[2]; strain 22", "result": "10 to 19", "unit": "mm"}, {"measurement": "zone of inhibition at 25 µg/disc", "setting": "[2]; strain 24", "result": "5 to 9", "unit": "mm"}, {"measurement": "zone of inhibition at 50 µg/disc", "setting": "[2]; strain 24", "result": "10 to 19", "unit": "mm"}, {"measurement": "zone of inhibition at 25 µg/disc", "setting": "[2]; strain 26", "result": "5 to 9", "unit": "mm"}, {"measurement": "zone of inhibition at 50 µg/disc", "setting": "[2]; strain 26", "result": "5 to 9", "unit": "mm"}, {"measurement": "zone of inhibition at 25 µg/disc", "setting": "[2]; strain 27", "result": "20 to 29", "unit": "mm"}, {"measurement": "zone of inhibition at 50 µg/disc", "setting": "[2]; strain 27", "result": "20 to 29", "unit": "mm"}, {"measurement": "zone of inhibition at 25 µg/disc", "setting": "[2]; strain 28", "result": "10 to 19", "unit": "mm"}, {"measurement": "zone of inhibition at 50 µg/disc", "setting": "[2]; strain 28", "result": "10 to 19", "unit": "mm"}, {"measurement": "zone of inhibition at 25 µg/disc", "setting": "[2]; strain 29", "result": "10 to 19", "unit": "mm"}, {"measurement": "zone of inhibition at 50 µg/disc", "setting": "[2]; strain 29", "result": "20 to 29", "unit": "mm"}, {"measurement": "zone of inhibition at 25 µg/disc", "setting": "[2]; strain 30", "result": "10 to 19", "unit": "mm"}, {"measurement": "zone of inhibition at 50 µg/disc", "setting": "[2]; strain 30", "result": "10 to 19", "unit": "mm"}, {"measurement": "Change in toxicity on ageing in seawater, 12L:12D condition", "setting": "barnacle nauplii; 12 h light and 12 h dark, after 4 weeks", "result": "did not show an appreciable change"}, {"measurement": "Effect of UV on drug toxicity to barnacle nauplii", "setting": "barnacle nauplii; UV for half an hour", "result": "some increase in toxicity"}]}
